Data on two molecules can be found in patent US10280198B2, “Therapeutic agents for reducing parathyroid hormone levels” (KAI PHARMACEUTICALS, INC., priority 2009, dated 2019).

Molecules are shown by their SMILES. Like-named read-outs stand apart in the source and are kept apart here.

Data set [1] concerns the target T1, human calcium-sensing receptor (CaSR) (Homo sapiens, UniProt P41180).
T1 construct: expressed in transfected cells; host or cells: HEK 293T cells, transiently transfected (lipofectamine 2000); in some cases HEK293 cells stably transfected
T1 sequence (P41180 20-1078): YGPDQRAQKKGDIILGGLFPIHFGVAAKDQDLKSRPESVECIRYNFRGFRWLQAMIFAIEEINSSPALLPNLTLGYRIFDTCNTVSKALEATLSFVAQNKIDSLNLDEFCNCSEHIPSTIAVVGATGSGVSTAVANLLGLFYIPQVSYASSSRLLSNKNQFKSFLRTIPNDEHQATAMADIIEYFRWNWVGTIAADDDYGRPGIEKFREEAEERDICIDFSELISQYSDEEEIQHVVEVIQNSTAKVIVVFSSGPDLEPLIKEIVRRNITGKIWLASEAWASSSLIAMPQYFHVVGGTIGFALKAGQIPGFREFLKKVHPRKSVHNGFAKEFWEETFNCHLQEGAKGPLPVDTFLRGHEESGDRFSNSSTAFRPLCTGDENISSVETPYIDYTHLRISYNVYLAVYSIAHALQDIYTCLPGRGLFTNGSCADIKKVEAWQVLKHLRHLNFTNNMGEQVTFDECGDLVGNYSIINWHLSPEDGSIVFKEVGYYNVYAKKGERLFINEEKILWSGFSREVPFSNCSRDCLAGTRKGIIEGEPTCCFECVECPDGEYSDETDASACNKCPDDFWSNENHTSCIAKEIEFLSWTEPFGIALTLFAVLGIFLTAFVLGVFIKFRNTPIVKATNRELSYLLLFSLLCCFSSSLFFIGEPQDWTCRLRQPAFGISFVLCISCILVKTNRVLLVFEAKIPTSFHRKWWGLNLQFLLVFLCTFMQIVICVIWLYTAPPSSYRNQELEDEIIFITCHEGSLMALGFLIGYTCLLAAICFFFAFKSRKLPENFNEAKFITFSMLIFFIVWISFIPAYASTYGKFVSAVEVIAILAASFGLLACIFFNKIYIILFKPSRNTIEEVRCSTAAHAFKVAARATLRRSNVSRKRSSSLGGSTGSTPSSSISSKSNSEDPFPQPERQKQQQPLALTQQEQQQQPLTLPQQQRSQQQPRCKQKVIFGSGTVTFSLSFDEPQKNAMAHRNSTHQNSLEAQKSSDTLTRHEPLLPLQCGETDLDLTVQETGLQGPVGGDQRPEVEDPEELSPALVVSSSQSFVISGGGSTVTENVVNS
As to the kind of experiment: In vitro cell assay in HEK-293 expressing the human calcium-sensing receptor (IP1 production). The data set is classed as cell-based. The gist of the method: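 HEK293 cells transfected with human CaSR exposed to peptides at eight concentrations in duplicate (top 1 mM or 300 μM, ½-log dilutions) at 37 °C for 1.5 h.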

Data set [2] has as its system rat peritoneal mast cells. As to the kind of experiment: In vitro histamine induction in rat peritoneal mast cells. The data set is classed as cell-based. In short, it runs like this:
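Mast cells from peritoneal lavage of Sprague Dawley rats were incubated with compound at 10 μM for 15 min at 37 °C in HBSS + 25 mM HEPES pH 7.4. Supernatant histamine measured by EIA; response expressed as fold change versus pre-incubation levels.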

The subject of the next data set is plasma histamine. The conditions noted are these: rat. As to the method:
For the in vivo evaluation of histamine release, compounds were dosed in isoflurane-anesthetized normal rats at 2 mg/kg by IV bolus (administered over less than one minute). Plasma histamine was measured 5 minutes after compound administration (Cayman histamine EIA #589651).

Setting [3] is: Table 5, IP1 production in HEK293 cells expressing human CaSR, eight concentrations in duplicate, read-out: EC50 in CaSR in vitro assay.

For orientation: EC50 means the midpoint of the concentration-response curve. Take `CC(=O)N[C@H](CS)C(=O)N[C@H](CCCNC(=N)N)C(=O)N[C@H](CCCNC(=N)N)C(=O)N[C@H](CCCNC(=N)N)C(=O)N[C@H](CCCNC(=N)N)C(=O)N[C@H](CCCNC(=N)N)C(=O)N[C@H](CCCNC(=N)N)C(N)=O` [SEQ ID NO: 6, Ac-crrrrrr-NH2]: the EC50 in data set [1] (Table 1, IP1 in HEK293 cells expressing human CaSR, read-out: In vitro EC50) came out at 500 nM; in data set [1] (setting [3]) it was 500 nM. In data set [2], the “Histamine in vitro Fold change of non-treated at 10 uM” value came out at 11.5 fold. Besides, the “Histamine response in vivo Fold change from pre-dose levels 5′ post injection 2 mg/kg IV bolus” value with plasma histamine is listed as 2.7 fold.

With `CC(=O)N[C@H](CS)C(=O)N[C@H](C)C(=O)N[C@H](CCCNC(=N)N)C(=O)N[C@H](CCCNC(=N)N)C(=O)N[C@H](CCCNC(=N)N)C(=O)N[C@H](C)C(=O)N[C@H](CCCNC(=N)N)C(N)=O` [SEQ ID NO: 26, Ac-carrrar-NH2], the EC50 in data set [1] (setting [3]) is 1600 nM. For the same molecule, the “Histamine in vitro Fold change of non-treated at 10 uM” value in data set [2] is reported as 1.4 fold. Besides, the “Histamine response in vivo Fold change from pre-dose levels 5′ post injection 2 mg/kg IV bolus” value in the data set with plasma histamine turned out to be 1.0 fold.
